This note sets out measurements from ChEMBL document CHEMBL1201862, “PubChem BioAssay data set” (2004).

The target of assay [1] is Epstein-Barr nuclear antigen 1 (Epstein-Barr virus (strain B95-8) (HHV-4) (Human herpesvirus 4), UniProt P03211). In words: EBNA-1 inhibitors, dose response, biochemical, fluorescence polarization, 1536-well (AID 2381).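 Note: fluorescence polarization of a Cy5 DNA probe bound by EBNA-1 protein.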 Also noted: species or system human gammaherpesvirus 4.
In assay [2] the target is Lytic switch protein BZLF1 (Epstein-Barr virus (strain B95-8) (HHV-4) (Human herpesvirus 4), UniProt P03206). In words: EBV ZTA inhibitors, dose response, counter-screen for EBNA-1 inhibitor project, biochemical, fluorescence polarization, Epstein-Barr virus, 1536-well (AID 2377).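 Note: fluorescence polarization of Cy5-labelled ZRE DNA probe bound by purified Zta.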 Details: species or system human gammaherpesvirus 4.
The next assay concerns the target NADPH oxidase 1 (Homo sapiens, UniProt Q9Y5S8). In kind it is functional, cell-based.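 Note: Cell-based assay with luminescence read-out, IC50 derived from inhibitor dose-response curves; intracellular ROS from endogenous NOX1 in intact HT29 colon cancer cells; potency of inhibitors that lower the ROS luminescence signal.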
Another assay addresses Estrogen receptor (Homo sapiens, UniProt P03372).
Assay [3] deals with T1, Calpain-2 catalytic subunit (Sus scrofa, UniProt P43367).
T1 sequence (P43367 whole entry): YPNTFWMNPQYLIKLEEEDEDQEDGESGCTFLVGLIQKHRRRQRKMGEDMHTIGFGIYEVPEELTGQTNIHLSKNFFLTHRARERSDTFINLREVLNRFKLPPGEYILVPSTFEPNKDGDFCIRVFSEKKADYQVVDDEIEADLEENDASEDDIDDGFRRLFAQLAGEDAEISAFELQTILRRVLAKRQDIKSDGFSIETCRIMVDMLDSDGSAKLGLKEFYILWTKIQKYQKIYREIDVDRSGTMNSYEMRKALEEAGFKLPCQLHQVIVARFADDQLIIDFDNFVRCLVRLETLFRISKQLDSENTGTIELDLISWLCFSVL
The experiment in a line: pig calpain II inhibitor potency, dose response, biochemical, fluorogenic peptide substrate (AID 1420). In kind it is functional.

Structures are written as SMILES. Active and inactive are the calls of the source.

Chain of Epstein-Barr nuclear antigen 1 (P03211 whole entry): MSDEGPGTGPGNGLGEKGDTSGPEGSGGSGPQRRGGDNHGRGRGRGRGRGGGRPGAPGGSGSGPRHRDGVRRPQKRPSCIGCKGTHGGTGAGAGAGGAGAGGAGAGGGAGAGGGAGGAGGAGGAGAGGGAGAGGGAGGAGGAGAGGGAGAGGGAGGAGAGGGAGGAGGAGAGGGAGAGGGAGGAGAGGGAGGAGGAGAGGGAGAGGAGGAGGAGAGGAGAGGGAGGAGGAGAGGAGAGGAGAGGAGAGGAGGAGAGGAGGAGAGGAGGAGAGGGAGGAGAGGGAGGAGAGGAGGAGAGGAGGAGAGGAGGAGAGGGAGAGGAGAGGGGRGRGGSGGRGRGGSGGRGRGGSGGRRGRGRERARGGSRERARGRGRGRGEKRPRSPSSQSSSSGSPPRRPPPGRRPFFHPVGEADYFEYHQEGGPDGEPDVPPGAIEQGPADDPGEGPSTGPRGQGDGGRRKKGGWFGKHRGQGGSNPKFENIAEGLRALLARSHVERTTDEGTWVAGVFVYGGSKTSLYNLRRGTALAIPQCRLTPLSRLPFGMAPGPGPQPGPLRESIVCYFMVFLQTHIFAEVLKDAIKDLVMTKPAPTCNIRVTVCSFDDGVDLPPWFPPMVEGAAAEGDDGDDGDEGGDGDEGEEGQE
Chain of Estrogen receptor (P03372 whole entry): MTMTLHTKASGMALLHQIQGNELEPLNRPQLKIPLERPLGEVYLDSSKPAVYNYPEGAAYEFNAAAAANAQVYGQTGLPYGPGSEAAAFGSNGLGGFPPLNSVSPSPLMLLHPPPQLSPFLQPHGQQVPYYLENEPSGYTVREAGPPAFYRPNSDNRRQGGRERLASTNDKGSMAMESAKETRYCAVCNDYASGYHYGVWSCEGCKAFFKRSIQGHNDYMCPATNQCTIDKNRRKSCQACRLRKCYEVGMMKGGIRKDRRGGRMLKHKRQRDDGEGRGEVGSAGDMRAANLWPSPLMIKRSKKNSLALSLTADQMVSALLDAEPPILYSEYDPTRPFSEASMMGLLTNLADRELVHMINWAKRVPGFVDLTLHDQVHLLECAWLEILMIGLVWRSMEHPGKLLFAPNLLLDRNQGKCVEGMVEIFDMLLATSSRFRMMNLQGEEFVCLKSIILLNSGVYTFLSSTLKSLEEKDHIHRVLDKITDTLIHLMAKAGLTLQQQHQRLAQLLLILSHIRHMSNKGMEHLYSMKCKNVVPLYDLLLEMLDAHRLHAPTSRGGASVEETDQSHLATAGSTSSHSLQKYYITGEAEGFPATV
Chain of NADPH oxidase 1 (Q9Y5S8 whole entry): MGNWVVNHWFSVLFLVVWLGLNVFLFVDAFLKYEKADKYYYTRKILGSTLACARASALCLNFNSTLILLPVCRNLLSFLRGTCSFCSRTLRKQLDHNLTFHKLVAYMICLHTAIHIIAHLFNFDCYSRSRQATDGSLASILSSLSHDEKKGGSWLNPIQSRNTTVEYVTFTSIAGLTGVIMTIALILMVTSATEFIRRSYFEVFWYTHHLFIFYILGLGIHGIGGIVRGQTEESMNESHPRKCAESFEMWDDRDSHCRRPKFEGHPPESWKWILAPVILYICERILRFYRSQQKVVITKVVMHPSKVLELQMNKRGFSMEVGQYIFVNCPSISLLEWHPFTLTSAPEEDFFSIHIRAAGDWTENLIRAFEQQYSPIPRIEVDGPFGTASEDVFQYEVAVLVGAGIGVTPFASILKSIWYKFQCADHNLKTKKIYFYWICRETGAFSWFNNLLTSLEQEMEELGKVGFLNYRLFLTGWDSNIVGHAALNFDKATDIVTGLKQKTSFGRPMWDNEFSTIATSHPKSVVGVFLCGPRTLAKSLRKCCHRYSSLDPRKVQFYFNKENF
Chain of Lytic switch protein BZLF1 (P03206 whole entry): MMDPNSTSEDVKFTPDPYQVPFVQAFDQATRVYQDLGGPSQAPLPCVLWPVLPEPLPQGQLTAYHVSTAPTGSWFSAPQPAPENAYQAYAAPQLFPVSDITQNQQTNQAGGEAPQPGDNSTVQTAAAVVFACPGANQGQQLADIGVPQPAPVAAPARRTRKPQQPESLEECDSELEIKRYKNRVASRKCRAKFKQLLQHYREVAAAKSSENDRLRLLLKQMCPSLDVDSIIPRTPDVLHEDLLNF

For the compound `CCOc1ccc(C(=O)NC(=S)Nc2ccc(NC(=O)C(C)C)cc2)cc1[N+](=O)[O-]`, the half-inhibitory concentration (IC50) is 1.89 µM (active) in assay [1] and > 111 µM (not active) in assay [2].

For `COc1ccc2c(Cl)c(C(=O)Oc3ccccc3[N+](=O)[O-])sc2c1`, the IC50 on NADPH oxidase 1 is given as > 17 µM (not active).

`Cc1nnc(Oc2ccccc2F)c2ccccc12`: the IC50 on Estrogen receptor was 30 µM (active); in assay [3], > 50 µM (not active).
